Data as given in patent US9073963B2 (Universite De Montreal, priority 2003, dated 2015).
Counter-ions that a name gives are not always drawn. Like-named read-outs stand apart in the source and are kept apart here. Where a SMILES comes first, the peptide text is derived from it. [ ]: non-standard residue; d: D form. dCit = NC(=O)NCCC[C@@H](N)C(=O)O

Assays:
FP receptor [1] = settings: cited from earlier work
[2] = tested on: uterine strips obtained from recently-delivered mice; experiment: Contractility of mouse uterine (myometrial) strips after delivery, organ bath
Method: Myometrial strips (1 cm) were dissected from pregnant mice immediately after delivery (when the uterus is still non-quiescent) and suspended in organ baths containing 10 ml of KREB's buffer bubbled with 90% oxygen. Contractile responses were recorded using pressure transducers connected to a Gould polygraph.

SR Ca^2+ ATPase = experiment: Porcine microvascular contraction to BHQ (intracellular Ca2+ dynamics control); settings: BHQ 10^−6M; 0.1 mM THG113
Method: (§1) The preparations were allowed to stabilize for 30 min.

CD-1 mice = experiment: Endotoxin (E. coli LPS) model of mouse preterm labor
Method: Timed-pregnant CD-1 mice (mean gestation was 19.2 days) were purchased and at day 17, alzet pumps containing THG113 in saline were surgically implanted on the back of the animals. These pumps continuously deliver the inhibitor at 1 mg/day. E. coli lipopolysaccharide (LPS) (50 μg i. p. twice at 3 h interval) was injected on day 15.
E. coli LPS (50 μg twice three hours apart, i.p) was administered to CD-1 mice (average weight: 50 g) at gestation day 15. Four hours after LPS was administered, alzet osmotic pumps that delivered 0.1, 0.4 or 0.8 mg/Kg/day of the drug were surgically implanted on the backs of the animals. Normal gestation in this strain is 19.2 days.
E. coli LPS (50 μg twice three hours apart, i.p) was administered to CD-1 mice at gestation day 15. Alzet osmotic pumps that delivered 0.1 mg/Kg/day of the drug were surgically implanted on the backs of the animals. Normal gestation in this strain is 19.2 days.

[3] = tested on: acetylcholine (uncharacterized subtypes); experiment: Porcine microvascular contraction to acetylcholine (selectivity); settings: agonist Acetylcholine 10^−6M; 0.1 mM THG113
Method: as §1

FP receptor [4] = biological target: T1, FP receptor (Sus scrofa, UniProt C6GAG8); experiment: Porcine retinal (ocular) microvascular contraction to PGF2α, eyecup assay; settings: for % Inhibition: 100 nM PGF2α, compound at 100 μM
T1 construct: the porcine eyecup model, an ex vivo assay of vascular constriction in porcine retinas; from tissue; host or cells: retinal microvessels in eyecups of newborn pigs pre-treated with ibuprofen
Method: as §1
Percent (%) inhibition denotes porcine ocular microvessel contraction in response to 100 nM PGF2α in the presence of 0.1 mM peptide relative to that in the absence of the peptide, expressed as percentage.

human FP receptor [5] = biological target: T2, human FP receptor (Homo sapiens, UniProt P43088); experiment: Displacement of bound [3H]PGF2α in FP/293 whole cell assay; assay type: binding; settings: FP/293 cells
T2 construct: expressed in transfected cells; host or cells: HEK293 (FP/293)
Source text: […] Biophys. Acta 28, 251(3):363-369). […] The radioactivity on the filters was counted by scintillation spectrophotometry. For a detailed method of ligand binding and displacement, see Li at al. (1996). […] Using cloned FP/293 cells in binding assays (see Li et al. for a method of ligand displacement assay), the specific binding of THG113 to FP protein was investigated.

human FP receptor [6] = biological target: T2, human FP receptor; experiment: Specific binding of [125I]-THG113 to FP/293 cells versus parent HEK293 cells; settings: 10^5 cells, 10^6 cpm, 1 h
Method: [^125I]-THG113 was produced by labeling tyrosine residue with [^125I] using the lactoperoxidase method (Thorell et al. 1971 Biochim. Biophys. Acta 28, 251(3):363-369). HEK293 cells ectopically expressing cloned human FP receptor, FP/293, (10^5) were incubated with [^125I]-THG113 (10^6 cpm) for 1 h; bound and unbound ligands were separated by filtration on glass fibre filters. The radioactivity on the filters was counted by scintillation spectrophotometry. For a detailed method of ligand binding and displacement, see Li at al. (1996). […] Using cloned FP/293 cells in binding assays (see Li et al. for a method of ligand displacement assay), the specific binding of THG113 to FP protein was investigated.

C-PAF = settings: 0.1 mM THG113
Method: To prepare eyecups, a circular incision was made 3-4 mm posterior to ora serrata to remove the […] and vitreous body with minimal handling of the retina. The remaining eyecup was fixed with pins to a wax base in a 20 ml tissue bath containing 20 ml of Kreb's buffer (pH 7.35-7.45) and equilibrated with 21% oxygen and 5% carbon dioxide at 37° C. The preparations were allowed to stabilize for 30 min.
The outer vessel diameter was recorded with a video camera mounted on a dissecting microscope (Zeiss M 400) and the responses were quantified by a digital image analyzer (Sigma Scan Software, Jandel Scientific, Corte Madera, Calif.). Vascular diameter was recorded before and 5 min following the topical application of the agonist.

Urotensin = experiment: Porcine microvascular contraction to urotensin (selectivity); settings: agonist Urotensin 10^−6M; 0.1 mM THG113
Method: as §1

human FP receptor [7] = biological target: T2, human FP receptor; experiment: Phosphoinositide hydrolysis in FP/293 cells; assay type: cell-based; settings: in the presence of 100 nM PGF2α, 30 min
Source text: The phosphoinositides were collected by anion exchange chromatography with 1 M ammonium formate/0.1 N formic acid.

[8] = tested on: TP, EP1, angiotensin AT1, endothelin receptor, alpha adrenergic receptors; experiment: Specificity in porcine ocular microvessel contractility assays, agonists of other GPCRs; settings: 1 μM peptide
FP receptor [9] = biological target: T1, FP receptor; experiment: Porcine retinal (ocular) microvascular contraction to PGF2α, eyecup assay
myometrial strips [10] = experiment: Contractility of ovine myometrial strips
myometrial strips [11] = experiment: Contractility of bovine myometrial strips

T2 sequence (P43088 whole entry): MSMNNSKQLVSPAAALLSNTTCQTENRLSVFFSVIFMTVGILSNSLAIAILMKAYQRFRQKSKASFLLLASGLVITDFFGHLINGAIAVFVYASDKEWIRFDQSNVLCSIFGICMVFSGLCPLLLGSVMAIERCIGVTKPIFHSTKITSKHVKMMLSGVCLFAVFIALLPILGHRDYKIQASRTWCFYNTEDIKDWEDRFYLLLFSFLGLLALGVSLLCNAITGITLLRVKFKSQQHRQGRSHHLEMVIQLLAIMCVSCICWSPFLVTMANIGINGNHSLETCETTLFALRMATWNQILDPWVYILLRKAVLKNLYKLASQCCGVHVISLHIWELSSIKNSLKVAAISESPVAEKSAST
T1 sequence (C6GAG8 1-362): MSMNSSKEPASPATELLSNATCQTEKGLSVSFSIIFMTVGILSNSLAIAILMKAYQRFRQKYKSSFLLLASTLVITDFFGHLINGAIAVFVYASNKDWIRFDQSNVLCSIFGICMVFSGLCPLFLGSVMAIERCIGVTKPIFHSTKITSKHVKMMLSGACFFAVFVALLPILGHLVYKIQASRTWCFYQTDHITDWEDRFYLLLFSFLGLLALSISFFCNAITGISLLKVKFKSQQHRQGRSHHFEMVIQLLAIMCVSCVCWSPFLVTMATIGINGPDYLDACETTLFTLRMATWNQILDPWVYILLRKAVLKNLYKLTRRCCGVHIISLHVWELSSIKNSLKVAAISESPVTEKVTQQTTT

O=C(O)CCC/C=C\C[C@@H]1[C@@H](/C=C/[C@H](O)C2Cc3ccccc3C2)[C@@H](F)C[C@@H]1O [AL8810]
activity at FP receptor (FP receptor [1]): weak partial agonist

CC[C@@H](C)[C@@H](N)C(=O)N[C@H](CC(C)C)C(=O)NCC(=O)N[C@H](Cc1c[nH]cn1)C(=O)N[C@H](CCCNC(=N)N)C(=O)N[C@H](CC(=O)O)C(=O)N[C@H](Cc1ccc(O)cc1)C(=O)N[C@H](CCCCN)C(=O)O [Compound 1] (H-[dI][dL]G[dH][dR][dD][dY][dK]-OH; N-terminus and C-terminus assumed)
time until spontaneous and PGF2α (1 μM)-induced contractile responses were diminished ([2]; after addition of 100 μM THG113): ≤ 20 min
% Inhibition (SR Ca^2+ ATPase): <1%
animals with labor delayed past 15 h after LPS (CD-1 mice; alzet pump 1 mg/day): 60%
mean time of delivery (CD-1 mice; alzet pump 1 mg/day, after LPS): 36 h
% Inhibition [3]: <1%
contractile response to supra-physiological levels of PGF2α (FP receptor [4]; 100 μM THG113): failed to produce contractile response
selectivity of inhibition among GPCR agonists (FP receptor [4]; 0.1 mM THG113, 0.1 μM concentration of the agonists): selective for FP receptor only
displacement of [3H]PGF2α binding (human FP receptor [5]): little displacement
specific binding of [125I]-THG113 to FP/293 cells relative to parent HEK293 cells (human FP receptor [6]): 27 fold
% Inhibition (C-PAF; agonist C-PAF 10^−6M): <1%
% Inhibition (C-PAF; agonist C-PAF 10^−7M): <1%
% Inhibition (Urotensin): <1%
inhibition of PGF2α-stimulated phosphoinositide hydrolysis (human FP receptor [7]): dose-dependently inhibited

CC[C@@H](C)[C@@H](N)C(=O)N[C@H](CC(C)C)C(=O)NCC(=O)N[C@H](Cc1c[nH]cn1)C(=O)N[C@H](CCCNC(N)=O)C(=O)N[C@H](CC(=O)O)C(=O)N[C@H](Cc1ccc(O)cc1)C(=O)N[C@H](CCCCN)C(=O)O [Compound 32] (H-[dI][dL]G[dH][dCit][dD][dY][dK]-OH; N-terminus and C-terminus assumed)
uterine contractile responses (contraction duration and mean force of contraction) ([2]; induced by 1 μM PGF2α): dose-dependent reduction
animals delivered within 15 h after LPS administration (CD-1 mice; 0.1 mg (osmotic pump)): less than 30%
animals delivered at 48 h after LPS administration (CD-1 mice; 0.4 mg dose): 50-60%
animals delivered within 15 h after LPS administration (CD-1 mice; 0.8 mg (osmotic pump)): < 15%
animals delivered at 48 h after LPS administration (CD-1 mice; 0.8 mg dose): 50-60%
delay in delivery (CD-1 mice; 0.1, 0.4 or 0.8 mg/Kg/day): dose-dependent delay in delivery
vasomotor responses produced by agonists of other GPCRs, including TP and EP1 [8]: did not affect the vasomotor responses
selectivity for FP receptor (FP receptor [9]; 1 μM peptide): selective inhibitor of FP receptor
reduction of uterine contractile responses (myometrial strips [10]): Reductions of similar magnitude
reduction of uterine contractile responses (myometrial strips [11]): Reductions of similar magnitude

N=C(N)NCCC[C@H](NC(=O)[C@@H]1C[C@H](Cc2ccccc2)[C@@H]2CC[C@H](NC(=O)C3CCCCC3)C(=O)N12)C(=O)N[C@@H](CC(=O)O)C(=O)NCCC(c1ccccc1)c1ccccc1.O=C(O)C(F)(F)F [Compound 34, (3S,6S,7S,9S)-2-oxo-3-cyclohexanecarboxamido-7-benzyl-1-azabicyclo[4.3.0]nonane-9-carboxyl-L-argininyl-L-aspartyl-3′,3′-diphenylpropylamide trifluoroacetate]
% Inhibition (FP receptor [9]; 100 nM PGF2α, compound at 50 μM): 63.2%

N=C(N)NCCC[C@H](NC(=O)[C@@H]1CC[C@@H]2CC[C@H](NC(=O)Cc3ccccc3)C(=O)N21)C(=O)N[C@@H](Cc1ccccc1)C(=O)O.O=C(O)C(F)(F)F [Compound 46, (3S,6S,9S)-2-oxo-3-phenylacetamido-1-azabicyclo[4.3.0]nonane-9-carboxyl-L-argininyl-L-phenylalanine trifluoroacetate]
% Inhibition (FP receptor [4]): 51.1%

N=C(N)NCCC[C@H](NC(=O)[C@@H]1CC[C@@H]2CC[C@H](NC(=O)Cc3ccccc3)C(=O)N21)C(=O)N[C@H](CC(=O)O)Cc1ccccc1 [Compound 47, (3S,6S,9S)-2-oxo-3-phenylacetamido-1-azabicyclo[4.3.0]nonane-9-carboxyl-L-argininyl-(3′S)-3′-amino-4′-phenylbutanoic acid trifluoroacetate]
animals delivered within the first 15 h after endotoxin administration (CD-1 mice; 0.1 mg/Kg/day osmotic pump): Less than 25%
IC50 (FP receptor [4]): 1.6 nM

N=C(N)NCCC[C@H](NC(=O)[C@@H]1CC[C@@H]2CC[C@H](NC(=O)Cc3ccccc3)C(=O)N21)C(=O)N[C@@H](CCc1ccccc1)CC(=O)O [Compound 48, (3S,6S,9S)-2-oxo-3-phenylacetamido-1-azabicyclo[4.3.0]nonane-9-carboxyl-L-argininyl-(3′S)-3′-amino-5′-phenylpentanoic acid trifluoroacetate]
IC50 (FP receptor [4]): 3.5 nM

N=C(N)NCCC[C@H](NC(=O)[C@@H]1CC[C@@H]2CC[C@H](NC(=O)Cc3ccccc3)C(=O)N21)C(=O)N[C@H](CCc1ccccc1)CC(=O)O.O=C(O)C(F)(F)F [Compound 49, (3S,6S,9S)-2-oxo-3-phenylacetamido-1-azabicyclo[4.3.0]nonane-9-carboxyl-L-argininyl-(3′R)-3′-amino-5′-phenylpentanoic acid trifluoroacetate]
% Inhibition (FP receptor [4]): 59.5%

CCCCC[C@H](O)/C=C/[C@@H]1[C@@H](C/C=C\CCCC(=O)O)[C@@H](O)C[C@H]1O [PGF2α, prostaglandin F2α, reference compound]
displacement of [3H]PGF2α binding (human FP receptor [5]): completely displaced

O=C(CCc1ccc(O)cc1)c1c(O)cc(O)cc1O [Phloretin]
IC50 (FP receptor [1]; antagonist of FP receptor): 20000 nM
